Experimental data published in ChEMBL document CHEMBL3714744, “Aryl sulfonamides” (2009).
Active and inactive are the calls of the source. The rule behind the calls is not given here.

tested on: Mus musculus; assay: Inhibition of inflammatory bowel disease-associated growth retardation in MDR1a-knockout mouse at 50 mg/kg, sc dosed twice daily for 14 consecutive weeks starting at age 10 weeks; type: functional, organism-based; conditions: not given

Row | Structure (SMILES) | inhibition
1 | CC(C)(C)c1ccc(S(=O)(=O)Nc2ccc(Cl)cc2C(=O)c2ccncc2)cc1 | Active

target: T1, C-C chemokine receptor type 9 (Homo sapiens, UniProt P51686); assay: Antagonist activity against CCR9 in human MOLT4 cells assessed as inhibition of human recombinant TECK-induced calcium response pre-treated before TECK stimulation by Flou-4-AM dye based FLIPR assay; type: functional, cell-based, MOLT-4; conditions: not given
T1 sequence (P51686 whole entry): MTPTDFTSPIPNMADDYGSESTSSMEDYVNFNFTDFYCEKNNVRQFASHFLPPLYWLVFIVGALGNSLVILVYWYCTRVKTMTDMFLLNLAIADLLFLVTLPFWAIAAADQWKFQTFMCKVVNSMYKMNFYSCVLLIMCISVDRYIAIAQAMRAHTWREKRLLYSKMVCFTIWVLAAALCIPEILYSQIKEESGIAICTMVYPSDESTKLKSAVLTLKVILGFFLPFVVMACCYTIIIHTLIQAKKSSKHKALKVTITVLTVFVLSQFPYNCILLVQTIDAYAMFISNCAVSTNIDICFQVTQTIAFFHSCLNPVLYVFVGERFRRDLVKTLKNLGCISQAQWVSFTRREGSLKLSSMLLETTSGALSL

Row | IC50 [nM] | Structure (SMILES)
2 | < 100 | CS(=O)(=O)c1ccc(S(=O)(=O)Nc2ccc(Cl)cc2C(=O)c2cccnc2)cc1
3 | < 100 | COC(=O)CCc1ccc(S(=O)(=O)Nc2ccc(Cl)cc2C(=O)c2ccnc(C)c2)cc1
4 | < 100 | Cc1cc(C(=O)c2cc(Cl)ccc2NS(=O)(=O)c2ccc(S(C)(=O)=O)cc2)ccn1
5 | < 100 | O=C(c1ccncc1)c1cc(Cl)ccc1NS(=O)(=O)c1ccc([N+](=O)[O-])cc1
6 | < 100 | CC(=O)c1ccc(S(=O)(=O)Nc2ccc(Br)cc2C(=O)c2ccncc2)cc1

same assay, conditions: molt-4

Row | IC50 | Structure (SMILES)
7 | in the range around 100 nM | Cc1ncccc1C(=O)c1cc(Cl)ccc1NS(=O)(=O)c1ccc(OC(F)(F)F)cc1
8 | in the range around 100 nM | COc1ccc(S(=O)(=O)Nc2ccc(Cl)cc2C(=O)c2ccccn2)cc1
9 | in the range around 1000 nM | Cc1ncccc1C(=O)c1cc(Cl)ccc1NS(=O)(=O)c1ccc(-c2cnco2)cc1
